According to article PMC5458052 (Nature Communications, 2017):

Legend:
[1] = tested on: P. falciparum strains (sensitive and resistant); experiment: microbe, parasite or virus in culture; assay type: cell-based; conditions: Plasmodium falciparum, mean ± SD n=3
[2] = tested on: P. falciparum lab lines FC27 and K1; experiment: microbe, parasite or virus in culture; assay type: cell-based; conditions: Plasmodium falciparum, median of 3 independent experiments
[3] = tested on: P. vivax clinical field isolates; experiment: microbe, parasite or virus in culture; assay type: cell-based; conditions: Plasmodium vivax, read-out: Median IC50
[4] = tested on: P. falciparum strain 3D7^0087/N9; design: method as in PMID 19596869; conditions: four consecutive daily doses; cited from earlier work

Work on `C[C@H]1[C@H](OC(=O)CCC(=O)O)O[C@@H]2O[C@@]3(C)CC[C@H]4[C@H](C)CC[C@@H]1[C@@]24OO3` [Artesunate, artesunate] yielded an IC50 ([1]; DD2, strain Dd2 (chloroquine resistant)) of 5.4 ± 1.1 nM, an IC50 ([1]; HB3, strain HB3 (chloroquine sensitive)) of 2.8 ± 0.6 nM and an IC50 ([1]; NF54, strain NF54 (chloroquine sensitive)) of 4.7 ± 1 nM. It also gave an IC50 ([1]; strain 7G8 (chloroquine resistant)) of 1.8 ± 0.4 nM, an IC50 ([1]; strain D6 (chloroquine sensitive)) of 5.8 ± 1.2 nM and an IC50 ([1]; strain FCB (chloroquine resistant)) of 5.8 ± 1.2 nM. The IC50 ([1]; strain K1 (chloroquine resistant)) was 2.8 ± 0.6 nM, the IC50 ([1]; strain V1/S (chloroquine resistant)) was 2.7 ± 0.6 nM and the IC50 ([2]; K1, FC27 (CQ S) lab line) was 3.6 nM. The IC50 ([2]; K1, K1 (CQ R) lab line) was 5.1 nM, the IC50 [3] was 0.8 nM and the ED90 [4] was 10 mg/kg.
